Legend:
[1] = biological target: CNGA2/CNGA4/CNGB1 (Rattus norvegicus, UniProt O35788+Q00195+Q64359); assay: Activation of recombinant rat CNGA2/CNGA4/CNGB1b heterotetramer expressed in Xenopus laevis oocyte assessed as increase in current amplitude by patch-clamp electrophysiology method
[2] = biological target: T1, Rap guanine nucleotide exchange factor 3 (Homo sapiens, UniProt O95398); assay: Inhibition of 8Fluo-cAMP binding to recombinant human His-tagged EPAC1 (157 to 881 residues) expressed in Escherichia coli measured after 5 mins by fluorescence polarization assay
T1 sequence (O95398 whole entry): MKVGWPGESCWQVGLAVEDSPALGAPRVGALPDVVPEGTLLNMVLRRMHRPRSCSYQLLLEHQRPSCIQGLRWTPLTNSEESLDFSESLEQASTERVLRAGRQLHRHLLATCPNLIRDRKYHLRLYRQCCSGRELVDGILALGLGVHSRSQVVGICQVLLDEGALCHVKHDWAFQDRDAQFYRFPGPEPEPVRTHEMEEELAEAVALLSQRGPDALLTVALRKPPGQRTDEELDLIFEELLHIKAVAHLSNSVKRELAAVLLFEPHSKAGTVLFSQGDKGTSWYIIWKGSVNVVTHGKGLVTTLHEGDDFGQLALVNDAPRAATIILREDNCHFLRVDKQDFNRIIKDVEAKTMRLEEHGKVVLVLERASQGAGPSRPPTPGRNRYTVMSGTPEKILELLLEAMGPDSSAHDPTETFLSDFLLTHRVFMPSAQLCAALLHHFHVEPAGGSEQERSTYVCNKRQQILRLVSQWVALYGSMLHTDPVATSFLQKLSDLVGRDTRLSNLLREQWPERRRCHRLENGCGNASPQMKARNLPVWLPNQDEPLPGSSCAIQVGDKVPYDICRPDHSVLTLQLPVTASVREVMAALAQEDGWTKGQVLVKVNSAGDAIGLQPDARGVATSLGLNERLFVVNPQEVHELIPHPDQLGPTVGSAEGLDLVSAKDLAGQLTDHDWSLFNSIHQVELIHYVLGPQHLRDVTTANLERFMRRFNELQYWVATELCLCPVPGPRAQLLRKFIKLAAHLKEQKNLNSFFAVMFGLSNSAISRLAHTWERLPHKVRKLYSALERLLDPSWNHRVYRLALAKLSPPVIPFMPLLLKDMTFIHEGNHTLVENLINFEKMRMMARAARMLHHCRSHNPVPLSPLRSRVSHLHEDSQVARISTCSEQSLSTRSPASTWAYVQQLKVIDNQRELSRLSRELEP

[3] = biological target: T2, Rap guanine nucleotide exchange factor 4 (Mus musculus, UniProt Q9EQZ6); assay: Inhibition of 8Fluo-cAMP binding to DEP domain deficient mouse EPAC2 (280 to 998 residues) measured after 5 mins by fluorescence polarization assay
T2 sequence (Q9EQZ6 whole entry): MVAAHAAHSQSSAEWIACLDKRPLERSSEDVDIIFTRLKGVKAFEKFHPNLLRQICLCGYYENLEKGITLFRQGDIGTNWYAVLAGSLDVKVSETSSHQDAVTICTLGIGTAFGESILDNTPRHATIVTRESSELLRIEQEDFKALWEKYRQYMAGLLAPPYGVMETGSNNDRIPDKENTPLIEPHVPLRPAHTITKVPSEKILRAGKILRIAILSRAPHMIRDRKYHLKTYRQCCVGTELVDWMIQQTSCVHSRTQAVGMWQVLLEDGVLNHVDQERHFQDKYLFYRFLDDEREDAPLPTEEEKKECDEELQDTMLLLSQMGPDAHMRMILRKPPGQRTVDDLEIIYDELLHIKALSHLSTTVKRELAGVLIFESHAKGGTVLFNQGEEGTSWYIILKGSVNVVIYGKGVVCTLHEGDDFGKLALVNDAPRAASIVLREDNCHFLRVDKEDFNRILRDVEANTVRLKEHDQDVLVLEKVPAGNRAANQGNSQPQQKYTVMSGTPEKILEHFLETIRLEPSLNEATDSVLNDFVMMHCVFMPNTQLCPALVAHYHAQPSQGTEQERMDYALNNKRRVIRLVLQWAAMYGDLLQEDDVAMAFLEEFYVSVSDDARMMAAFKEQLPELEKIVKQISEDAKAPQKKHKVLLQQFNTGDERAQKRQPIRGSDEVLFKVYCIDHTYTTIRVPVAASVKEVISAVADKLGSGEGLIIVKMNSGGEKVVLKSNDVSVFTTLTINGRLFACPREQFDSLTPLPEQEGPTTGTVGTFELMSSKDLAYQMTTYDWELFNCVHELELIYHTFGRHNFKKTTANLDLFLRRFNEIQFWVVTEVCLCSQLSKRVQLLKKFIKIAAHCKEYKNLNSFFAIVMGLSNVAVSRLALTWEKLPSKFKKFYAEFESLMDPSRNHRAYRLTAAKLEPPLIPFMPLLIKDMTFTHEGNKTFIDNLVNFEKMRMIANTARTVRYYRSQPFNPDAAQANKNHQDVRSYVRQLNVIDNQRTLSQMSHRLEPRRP

[4] = biological target: cAMP-dependent protein kinase type II-alpha regulatory subunit (Homo sapiens) (UniProt P13861)
Sequence of cAMP-dependent protein kinase type II-alpha regulatory subunit (Homo sapiens) (P13861 whole entry): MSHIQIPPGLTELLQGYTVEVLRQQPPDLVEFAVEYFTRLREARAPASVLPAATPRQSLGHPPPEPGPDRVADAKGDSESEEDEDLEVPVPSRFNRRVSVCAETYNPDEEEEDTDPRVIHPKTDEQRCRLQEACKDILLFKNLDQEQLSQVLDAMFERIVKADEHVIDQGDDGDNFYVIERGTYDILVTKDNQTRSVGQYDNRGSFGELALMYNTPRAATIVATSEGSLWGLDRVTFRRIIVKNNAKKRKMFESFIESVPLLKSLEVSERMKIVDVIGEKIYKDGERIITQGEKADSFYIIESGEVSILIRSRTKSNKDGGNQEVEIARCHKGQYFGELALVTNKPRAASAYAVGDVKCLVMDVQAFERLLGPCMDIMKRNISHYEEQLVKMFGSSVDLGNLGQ
Description: Activation of recombinant human PKAR2alpha expressed in Escherichia coli using Kemptide as substrate by spectrophotometric method

[5] = biological target: cAMP-dependent protein kinase type I-alpha regulatory subunit (Homo sapiens) (UniProt P10644)
Sequence of cAMP-dependent protein kinase type I-alpha regulatory subunit (Homo sapiens) (P10644 whole entry): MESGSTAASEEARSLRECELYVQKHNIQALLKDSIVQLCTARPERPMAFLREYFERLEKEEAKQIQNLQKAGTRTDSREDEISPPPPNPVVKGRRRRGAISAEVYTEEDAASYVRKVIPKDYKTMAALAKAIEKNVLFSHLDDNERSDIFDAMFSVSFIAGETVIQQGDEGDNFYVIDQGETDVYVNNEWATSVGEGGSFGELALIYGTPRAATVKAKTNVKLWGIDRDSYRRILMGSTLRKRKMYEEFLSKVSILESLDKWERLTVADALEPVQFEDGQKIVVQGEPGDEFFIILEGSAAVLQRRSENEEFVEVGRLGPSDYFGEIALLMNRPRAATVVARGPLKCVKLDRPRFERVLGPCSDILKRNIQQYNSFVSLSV
Description: Activation of recombinant human PKAR1alpha expressed in Escherichia coli using Kemptide as substrate by spectrophotometric method

[6] = biological target: T3, Cyclic nucleotide-gated channel alpha-2 (Rattus norvegicus, UniProt Q00195); assay: Activation of recombinant rat CNGA2 expressed in Xenopus laevis oocyte assessed as increase in current amplitude by patch-clamp electrophysiology method
T3 sequence (Q00195 whole entry): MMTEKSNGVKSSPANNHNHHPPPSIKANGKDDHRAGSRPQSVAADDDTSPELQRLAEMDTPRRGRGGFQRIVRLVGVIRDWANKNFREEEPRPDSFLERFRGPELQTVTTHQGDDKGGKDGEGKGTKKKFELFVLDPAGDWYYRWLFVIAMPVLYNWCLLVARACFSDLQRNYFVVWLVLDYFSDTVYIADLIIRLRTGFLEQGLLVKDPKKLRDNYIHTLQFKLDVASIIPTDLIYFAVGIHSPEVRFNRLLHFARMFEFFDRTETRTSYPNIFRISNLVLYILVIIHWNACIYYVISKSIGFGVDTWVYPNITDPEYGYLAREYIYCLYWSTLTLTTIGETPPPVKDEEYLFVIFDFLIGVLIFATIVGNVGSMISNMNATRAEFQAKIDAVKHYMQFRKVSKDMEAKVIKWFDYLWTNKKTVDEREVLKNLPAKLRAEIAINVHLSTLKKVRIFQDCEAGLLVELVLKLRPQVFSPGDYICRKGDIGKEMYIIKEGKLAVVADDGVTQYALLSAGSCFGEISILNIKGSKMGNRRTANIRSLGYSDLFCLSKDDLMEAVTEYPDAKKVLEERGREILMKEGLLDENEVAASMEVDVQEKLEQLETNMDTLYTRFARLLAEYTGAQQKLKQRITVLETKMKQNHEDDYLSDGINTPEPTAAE

[7] = biological target: T4, Potassium/sodium hyperpolarization-activated cyclic nucleotide-gated channel 2 (Mus musculus, UniProt O88703); assay: Activation of recombinant mouse HCN2 expressed in Xenopus laevis oocyte assessed as increase in current amplitude at -30 mV holding potential by patch-clamp electrophysiology method
T4 sequence (O88703 whole entry): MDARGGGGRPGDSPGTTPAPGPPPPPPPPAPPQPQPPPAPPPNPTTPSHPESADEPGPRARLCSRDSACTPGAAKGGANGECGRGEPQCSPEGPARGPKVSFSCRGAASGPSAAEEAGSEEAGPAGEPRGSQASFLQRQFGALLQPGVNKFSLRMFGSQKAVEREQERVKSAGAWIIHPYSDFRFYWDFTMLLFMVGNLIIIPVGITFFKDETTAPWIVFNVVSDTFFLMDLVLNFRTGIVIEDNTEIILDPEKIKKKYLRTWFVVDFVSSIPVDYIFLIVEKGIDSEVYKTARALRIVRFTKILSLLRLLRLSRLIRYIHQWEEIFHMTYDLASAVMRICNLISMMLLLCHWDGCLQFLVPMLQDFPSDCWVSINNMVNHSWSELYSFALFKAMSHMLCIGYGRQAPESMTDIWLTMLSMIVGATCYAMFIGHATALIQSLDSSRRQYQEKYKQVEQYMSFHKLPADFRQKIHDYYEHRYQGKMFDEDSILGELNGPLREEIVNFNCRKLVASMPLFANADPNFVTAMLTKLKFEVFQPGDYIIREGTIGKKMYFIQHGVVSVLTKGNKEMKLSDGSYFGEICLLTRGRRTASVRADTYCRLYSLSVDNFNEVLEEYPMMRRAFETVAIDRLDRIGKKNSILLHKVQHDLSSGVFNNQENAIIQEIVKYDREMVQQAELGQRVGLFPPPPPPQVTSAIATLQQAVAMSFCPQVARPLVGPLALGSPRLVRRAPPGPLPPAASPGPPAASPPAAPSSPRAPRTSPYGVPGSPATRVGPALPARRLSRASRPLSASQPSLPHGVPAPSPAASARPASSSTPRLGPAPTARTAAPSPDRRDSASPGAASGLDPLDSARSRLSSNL

Sequence of CNGA2/CNGA4/CNGB1 (Q64359 whole entry, one chain of several, the tested form may be a part): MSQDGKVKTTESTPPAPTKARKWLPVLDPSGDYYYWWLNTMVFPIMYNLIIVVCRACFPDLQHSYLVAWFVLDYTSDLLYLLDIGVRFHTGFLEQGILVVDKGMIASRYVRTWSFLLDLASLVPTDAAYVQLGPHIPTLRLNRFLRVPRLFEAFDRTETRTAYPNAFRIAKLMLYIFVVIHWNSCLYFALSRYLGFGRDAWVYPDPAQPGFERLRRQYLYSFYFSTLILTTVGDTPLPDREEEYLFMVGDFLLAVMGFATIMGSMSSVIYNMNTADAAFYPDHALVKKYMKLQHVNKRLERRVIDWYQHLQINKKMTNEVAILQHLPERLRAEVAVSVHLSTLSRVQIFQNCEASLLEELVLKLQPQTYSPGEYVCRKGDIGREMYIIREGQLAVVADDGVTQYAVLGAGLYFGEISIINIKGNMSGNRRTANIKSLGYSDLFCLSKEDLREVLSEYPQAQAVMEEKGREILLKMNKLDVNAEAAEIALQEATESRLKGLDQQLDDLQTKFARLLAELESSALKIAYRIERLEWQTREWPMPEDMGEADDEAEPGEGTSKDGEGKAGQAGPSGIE
Sequence of CNGA2/CNGA4/CNGB1 (O35788 whole entry, one chain of several, the tested form may be a part): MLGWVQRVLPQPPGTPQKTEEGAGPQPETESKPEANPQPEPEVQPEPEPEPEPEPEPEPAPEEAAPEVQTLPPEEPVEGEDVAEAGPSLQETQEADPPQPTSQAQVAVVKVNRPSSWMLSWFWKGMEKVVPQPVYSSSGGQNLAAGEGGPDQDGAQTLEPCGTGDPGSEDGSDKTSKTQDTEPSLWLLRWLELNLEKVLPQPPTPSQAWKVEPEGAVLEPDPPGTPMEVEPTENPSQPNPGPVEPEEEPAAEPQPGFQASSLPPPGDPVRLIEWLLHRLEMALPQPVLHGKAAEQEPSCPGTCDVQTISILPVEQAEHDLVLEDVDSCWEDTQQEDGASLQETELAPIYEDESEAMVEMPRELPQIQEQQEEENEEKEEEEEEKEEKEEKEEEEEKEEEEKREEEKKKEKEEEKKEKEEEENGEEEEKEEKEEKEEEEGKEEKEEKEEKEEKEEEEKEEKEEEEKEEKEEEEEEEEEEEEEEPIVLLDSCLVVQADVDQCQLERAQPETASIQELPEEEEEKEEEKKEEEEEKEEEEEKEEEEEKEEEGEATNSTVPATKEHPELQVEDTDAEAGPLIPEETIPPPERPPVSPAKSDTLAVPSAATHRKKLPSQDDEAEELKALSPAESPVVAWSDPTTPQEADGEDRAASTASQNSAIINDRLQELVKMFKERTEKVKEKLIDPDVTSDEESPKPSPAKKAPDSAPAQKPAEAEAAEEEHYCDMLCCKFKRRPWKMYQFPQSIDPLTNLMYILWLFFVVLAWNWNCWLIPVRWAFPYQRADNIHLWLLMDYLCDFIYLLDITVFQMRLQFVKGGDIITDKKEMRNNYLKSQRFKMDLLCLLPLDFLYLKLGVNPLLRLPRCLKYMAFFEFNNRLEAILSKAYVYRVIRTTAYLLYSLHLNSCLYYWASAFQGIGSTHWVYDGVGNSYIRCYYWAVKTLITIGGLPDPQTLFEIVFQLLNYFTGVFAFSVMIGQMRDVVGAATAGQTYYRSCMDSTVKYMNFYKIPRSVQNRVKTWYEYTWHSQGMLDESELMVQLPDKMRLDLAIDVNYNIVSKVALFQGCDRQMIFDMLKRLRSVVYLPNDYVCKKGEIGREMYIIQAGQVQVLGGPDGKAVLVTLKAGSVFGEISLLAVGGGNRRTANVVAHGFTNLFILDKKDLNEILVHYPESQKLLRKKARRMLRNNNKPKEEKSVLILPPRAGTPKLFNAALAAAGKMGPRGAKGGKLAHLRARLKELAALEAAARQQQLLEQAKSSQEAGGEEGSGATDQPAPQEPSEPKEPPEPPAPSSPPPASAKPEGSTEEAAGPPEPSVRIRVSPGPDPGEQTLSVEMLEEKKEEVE

| Structure (SMILES) | EC50 [1] | EC50 [2] | EC50 [3] | Kact [4] | Kact [5] | EC50 [6] | EC50 [7] |
| --- | --- | --- | --- | --- | --- | --- | --- |
| Nc1ncnc2c1c(Br)cn2[C@@H]1O[C@@H]2COP(=O)(O)O[C@H]2[C@H]1O | 120 nM | 2540 nM | 2360 nM | 0.097 µM | 0.028 µM | 540 nM | – |
| Nc1ncnc2c1cc(Br)n2[C@@H]1O[C@@H]2COP(=O)(O)O[C@H]2[C@H]1O | 630 nM | 530 nM | 300 nM | 0.072 µM | 0.043 µM | 6400 nM | – |
| Nc1ncnc2c1ccn2[C@@H]1O[C@@H]2COP(=O)(O)O[C@H]2[C@H]1O | 360 nM | 2750 nM | 2060 nM | 0.238 µM | 0.199 µM | 2080 nM | 15 nM |
| Nc1ncnc2c1nc(Br)n2[C@@H]1O[C@@H]2COP(=O)(O)O[C@H]2[C@H]1O | 1600 nM | 1090 nM | 780 nM | 0.088 µM | 0.056 µM | 15400 nM | – |

— ChEMBL document CHEMBL4400574, “Chemical synthesis and biological activity of novel brominated 7-deazaadenosine-3',5'-cyclic monophosphate derivatives” (Bioorg Med Chem, 2019)
